We go through 5 molecules from patent publication US8497352B2, “Use of Wnt5-α peptide derivates for the treatment of melanoma and gastric cancer” (Wntresearch AB, priority 2008, dated 2013).

Common to all, as to assay type: cell-based, human
Assay [1] deals with Wnt-5a-induced Ca^2+ signaling. The assay can be described thus: Determination of cytosolic free calcium levels (fura-2) in A2058 cells. The following applies: for Cytosolic Ca^2+ response in A2058 cells, control G-protein coupled receptor ligands: endothelin-1 10 nM, charbacol 5 μM. The method, then: Cells grown on a glass cover slip were incubated with 4 μM fura-2/AM in culture medium for 30 minutes at 37° C. (Dejmek et al., 2006). After fura-2 loading of the cells, the cover slips were washed and mounted in a specially designed chamber to which was added a calcium-containing medium (136 mM NaCl, 4.7 mM KCl, 1.2 mM MgSO4, 1.1 mM CaCl2, 1.2 KH2PO4, 5 mM NaHCO3, 5.5 mM glucose and 20 mM Hepes, pH 7.4). The chamber was then placed in a system consisting of a NIKON Diaphot microscope connected to a Photon Technology International (PTI) imaging system. The cells were first allowed to rest for 10 minutes before any stimulation was performed. Fura-2 fluorescence was then recorded continuously from the cells before and after the stimulations with either Wnt-5a, endothelin-1 or charbacol (as indicated in the legend to FIG. 8) using an excitation wavelength rapidly alternating between 340 and 380 nm, while the emission wavelength was set at 510 nm. The fluorescence intensity ratios (340/380 nm) were subsequently calculated and analyzed using the PTI Image Master Software. Statistical analysis—The Student's t-test for unpaired samples was used to analyze differences in the experiments, where *=p<0.05, **=p<0.01, and ***=p<0.001

For assay [2], the system named is A2058 melanoma cells. The assay can be described thus: BD Matrigel invasion chamber assay, A2058 cells. The method, then:
Cell invasion was analyzed using the BD Matrigel™ invasion chamber assay (BD Biosciences, Bedford, Mass.). Prior to the initiation of each experiment, the cells were detached with Versene and re-suspended as single cells in serum-free RPMI medium. As indicated, cells were pre-incubated with the Box5 peptide (100 μM) or control solvent for 40 min with continuous agitation. An aliquot of the cell suspension containing 25,000 cells and 100 μM Box5 or control solvent was then added to the upper transwell chamber, and the lower chamber was filled with serum-containing (10%) medium. The invasion chambers were shaken horizontally for 5 min to ensure even distribution of the cells in suspension and subsequently across the membrane surface. The cells were allowed to invade for the periods of time indicated at 37° C. in a humidified atmosphere of 5% CO2. The medium was discarded and cells were fixed in 4% paraformaldehyde for 10 min. The cells were stained with 0.5% crystal violet in 20% methanol for 10 min and the non-invading cells on the inner side of the membrane were removed with a cotton-tipped applicator. The membrane was cut out of the chamber using a scalpel blade and the stained cells on the lower chamber side of the membrane were counted.

In assay [3] the test system is A2058 melanoma cells. The assay can be described thus: Cell adhesion assay, A2058 cells. The note with it: TGF-β1, 60 min adhesion. The method, then: Cells pre-treated and stimulated as described below were detached with Versene, re-suspended in serum-free RPMI medium and samples containing 30,000 cells from each treatment group were added to each well of a 96-well plate The cells were allowed to adhere for 60 min at 37° C. in a humidified atmosphere of 5% carbon dioxide after which the non-adherent cells were washed away with PBS. The adherent cells were fixed in 1% glutaraldehyde for 10 min at room temperature and then stained with 0.5% crystal violet in 20% methanol for 10 min. Finally the stain from each group of cells was dissolved in 50% acetic acid. The amount of dissolved stain from each well was thereafter measured in a Fluostar plate reader (BMG Lab Technologies GmbH, Offenberg, Germany) at 544 nm. The individual samples from each separate experiment were analysed in quadruplicate and the accumulated data were based on 5 separate experiments. The results are illustrated in FIG. 4. • A) A2058 melanoma cells were stimulated with the indicated concentrations of Wnt-5a, detached with Versene and resuspended as single cells in serum-free medium in the presence or absence of recombinant Wnt-5a at the indicated concentrations. Cells were then allowed to adhere in a 96-well plate. After a period of 60 min the non-adherent cells were washed away while the adherent cells were stained and their number determined. This number is presented as a percentage of the control (no Wnt-5a) stimulation (FIG. 4A) • B) A2058 melanoma cells were cultured to confluence in a 12-well plate after which a scratch was inflicted in each well, the medium was changed to fresh serum-free medium lacking (closed circles) or containing 0.2 μg/ml Wnt-5a (open squares). (FIG. 4B) • C) A2058 melanoma cells were cultured to confluence in a 12-well plate after which a scratch was inflicted to each well, the medium was changed to fresh serum-free medium in the absence of any additive (closed circle), the presence of 0.2 μg/ml Wnt-5a alone (open squares) or the presence of 0.2 μg/ml Wnt-5a with 100 μM Box5 (open triangle). (FIG. 4C) • D) HTB63 melanoma cells were cultured to confluence in a 12-well dish after which a scratch was inflicted to each well, the medium was changed to fresh serum-free medium (closed circle), conditioned medium (open squares) or conditioned medium supplemented with 100 μM Box5 (open triangle). To record changes in migration in panels B-D, a picture was taken from each scratch/well from the same area of cells after 0, 16, 24, 40 or 48 hours, and the wound-healing was expressed as percentage of wound area closed. […] The cells were then allowed to invade for 24 hours after which the attached cells on the lower side of the membrane were counted. […]

In assay [4] the test system is A2058 melanoma cells. The assay can be described thus: Wound-healing assay (migration), A2058 cells. The note with it: 5 ng/ml TGF-β1. The method, then:
Cells were plated in 12 well plates and allowed to grow into a confluent layer in complete RPMI (for A2058 cells) or complete McCoy's 5A medium (for HTB63 cells). As indicated, cells were pre-incubated with the Box5 peptide (100 μM) or control solvent for 40 min with continuous agitation. A wound was then inflicted by making a scratch through the confluent layer of cells with a pipette tip. During the migration period of the assay, cells were incubated either in serum-free medium or in the case of HTB63 cells in their own serum-free-conditioned medium collected from cells cultured for 48 h and used within 2 days after collection. The exact conditions of each experiment are described above. To avoid loss of activity, cell medium was changed after 24 hours. A picture for each scratch was taken in the same area of cells at 0, 16, 24, 40 and 48 hours, and wound healing was measured as percentage of wound area closed. For each experimental condition wound healing was analysed in triplicate. All data were based on 3 to 8 separate experiments as indicated.

In assay [5] the test system is Wnt-5a protein expression. The assay can be described thus: Wnt-5a protein expression in A2058 cells, Western blot. How it is done:
The cells were either directly lysed in 1× Laemmli buffer containing DTT and boiled for 10 min, or lysed in buffer containing 50 mM Tris-HCl (pH 7.5), 1% Triton X-100, 100 mM NaCl, 10 mM MgCl2, 20% glycerol, 1 mM Na3VO4, and protease inhibitors (20 μg/ml aprotinin, 1 μg/ml leupeptin, 2.5 mM benzamidine, and 2 mM pefabloc). Cell treated with lysis buffer were centrifuged at 15,000 rpm for 5 min at 4° C. The protein content in each sample was determined and adjusted to ensure equal loading of protein in each lane. Thereafter, 50 mM DTT and 5× concentrated Laemmli buffer was added and the samples boiled for 5 min. The samples were separated by SDS polyacrylamide gel electrophoresis and subsequently transferred to PVDF membranes. For immunoblotting the membranes were blocked in PBS supplemented with 0.2% Tween 20 and 1% non-fat milk for Wnt-5a or 3% non-fat milk as for all other antibodies for 1 h. Thereafter the membranes were incubated for 1 h at room temperature or overnight at 4° C. with the indicated primary Ab (1:25,000 for β-actin; 1:1,000 for Wnt-5a and 1:1,000 for TGF-β1) in 2% non-fat milk or 1.5% BSA. After extensive washing in PBS with 0.2% Tween, the membranes were incubated for 1 h with a horseradish peroxidase-conjugated secondary Ab in 2% non-fat milk or 1.5% BSA and again extensively washed. Finally, the Ab-antigen complexes were detected using enhanced chemiluminescence. […]

Bridges are numbered along the chain shown (N, C = ends). Where no end group is shown, it is not given here.

In the case of `CC(=O)OCOC(=O)CN(CC(=O)OCOC(C)=O)c1ccc(C)cc1OCCOc1cc(C)ccc1N(CC(=O)OCOC(C)=O)CC(=O)OCOC(C)=O` [MAPT/AM, reference compound], in assay [1] (10 μM MAPT/AM for 30 minutes, rWnt-5a 0.1 μg/ml), the “Effect on Wnt-5a-stimulated cytosolic Ca^2+ signal” value was “inhibited”. Besides, the “Effect on pro-invasive effect of Wnt-5a on A2058 cells” value with A2058 melanoma cells [2] (10 μM MAPT/AM 30 minutes pre-incubation, then 1 μM for 24 hours) is on record as “completely abolished”.
Turning to `C[N+](C)(C)CCOC(N)=O` [carbachol, reference compound], the “Cytosolic Ca^2+ response in A2058 cells, control G-protein coupled receptor ligands” value in assay [1] is recorded as “prompt responses”.
As to “TGF-β1: human recombinant TGF-β1 protein from R&D Systems”, in the assay on A2058 melanoma cells [3], the “Concentration giving maximal effect on adhesion of A2058 cells” value worked out at 5 ng/mL and the “Effect on adhesive capacity of A2058 cells” value was “stimulated”. Also, the “Effect on migration of A2058 cells” value in the assay on A2058 melanoma cells [4] is “increased”. Further, the “Effect on migration of A2058 cells in the invasion assay” value in the assay with A2058 melanoma cells [2] (5 ng/ml TGF-β1, 24 hours) is reported as “inhibited”. In assay [5] (TGF-β1), the “Concentration giving near maximal Wnt-5a expression” value came out at 5 ng/mL. For the same molecule, the “Wnt-5a protein expression in A2058 cells” value in assay [5] (different concentrations of recombinant TGF-β1, 36 h) is recorded as “increased expression”.
On to “endothelin-1: G-protein coupled control receptor ligand from Sigma Aldrich (CSCSSLMDKECVYFCHLDIIW; disulfide 1-15, 3-11; ends not checked; UniProt P05305 53-73, looked up) [reference compound]”, for which, in assay [1], the “Cytosolic Ca^2+ response in A2058 cells, control G-protein coupled receptor ligands” value is “prompt responses”.

B1: Wnt-3a: human recombinant Wnt-3a protein, canonical Wnt ligand (protein, UniProt P56704 19-352, looked up)
Protein Wnt-3a: SYPIWWSLAVGPQYSSLGSQPILCASIPGLVPKQLRFCRNYVEIMPSVAEGIKIGIQECQHQFRGRRWNCTTVHDSLAIFGPVLDKATRESAFVHAIASAGVAFAVTRSCAEGTAAICGCSSRHQGSPGKGWKWGGCSEDIEFGGMVSREFADARENRPDARSAMNRHNNEAGRQAIASHMHLKCKCHGLSGSCEVKTCWWSQPDFRAIGDFLKDKYDSASEMVVEKHRESRGWVETLRPRYTYFKVPTERDLVYYEASPNFCEPNPETGSFGTRDRTCNVSSHGIDGCDLLCCGRGHNARAERRREKCRCVFHWCCYVSCQECTRVYDVHTCK
In the case of B1, in the assay on A2058 melanoma cells [2] (0.1 μg/ml Wnt-3a, 24 hours), the “Stimulation of invasion of A2058 cells” value is on record as “not seen”.
